These results are taken from PubChem BioAssay (NCI).

Among the test systems are SNB-78 CNS; XF 498 CNS; LXFL 529 NSCLC; NCI-H522 lung; A549 NSCLC; M14 melanoma; COLO 205 colon; SK-MEL-2 melanoma; SW-620 colon; DMS 273 small cell lung; MCF7 breast; HS 578T breast; MDA-N.
Test in all cases: NCI anticancer screen, dose series, 48 h

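Results reflect a 48-hour exposure of cells in 96-well plates to compound at five concentrations. Definition used: TGI = concentration required for complete inhibition of growth.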 Some results are limits rather than exact numbers.

For `CC1=NN(C(=O)Cc2ccccc2)C(=O)/C1=C\c1ccccc1O`, the TGI with SNB-78 CNS, in the experiment with XF 498 CNS, with LXFL 529 NSCLC, in the experiment on NCI-H522 lung, in the experiment with A549 NSCLC and in the experiment with M14 melanoma was above 100 µM in each case. Moreover, the TGI with COLO 205 colon, in the experiment on SK-MEL-2 melanoma and in the experiment on SW-620 colon was above 100 µM each time.
On to `O=C(Nc1ccc(Sc2ccc(N=Nc3c(O)c(S(=O)(=O)O)cc4cc(S(=O)(=O)O)ccc34)cc2)cc1)c1ccc(N=Nc2c(O)c(S(=O)(=O)O)cc3cc(S(=O)(=O)O)ccc23)cc1`, for which the TGI in the experiment with SNB-78 CNS was above 100 µM; in the experiment with XF 498 CNS, above 100 µM; with LXFL 529 NSCLC, above 100 µM; in the experiment on NCI-H522 lung, 35.4 µM; in the experiment on A549 NSCLC it was above 100 µM; in the experiment on M14 melanoma, 91.8 µM. For the same molecule, the TGI in the experiment on COLO 205 colon is 40.2 µM; in the experiment with SK-MEL-2 melanoma, 96.8 µM; in the experiment with SW-620 colon it was above 100 µM; in the experiment on DMS 273 small cell lung, above 100 µM.
As for `O=C(c1ccccc1O)c1cc(-c2ncc3c(=O)c4ccccc4oc3n2)c(-c2ccccc2O)[nH]c1=O`, the TGI is above 88.1 µM in the experiment with SNB-78 CNS; 67.9 µM with XF 498 CNS; 61.5 µM with NCI-H522 lung; 73.1 µM in the experiment with A549 NSCLC; above 100 µM in the experiment on COLO 205 colon; 34.2 µM with MCF7 breast. Moreover, the TGI is 46.3 µM in the experiment with SK-MEL-2 melanoma, above 77.1 µM in the experiment on SW-620 colon and 88.3 µM in the experiment with DMS 273 small cell lung.
As to `Cc1ccc(C#CS(=O)(=O)C(F)(F)F)cc1`, the TGI with SNB-78 CNS, with XF 498 CNS, with NCI-H522 lung, with A549 NSCLC, with COLO 205 colon and in the experiment on MCF7 breast was above 100 µM throughout. In addition, the TGI in the experiment on SK-MEL-2 melanoma, in the experiment on SW-620 colon and with DMS 273 small cell lung was above 100 µM each time.
On to `COc1ccc([C@H]2c3cc4c(cc3OC(O)(CO)[C@H]2C(=O)O)OCO4)c(OC)c1` (stereo partly specified) (tested in a mixture with another compound), for which the TGI in the experiment with SNB-78 CNS, in the experiment on XF 498 CNS, with LXFL 529 NSCLC, in the experiment with A549 NSCLC, with M14 melanoma and with COLO 205 colon was above 100 µM in each case. In addition, the TGI in the experiment with SK-MEL-2 melanoma, in the experiment on SW-620 colon and in the experiment with DMS 273 small cell lung was above 100 µM throughout.
Turning to `O=NN1C(c2ccccc2)CCCC1c1ccccc1` (stereo unspecified), the TGI was above 100 µM in the experiment with SNB-78 CNS; 87.5 µM in the experiment with XF 498 CNS; above 81.2 µM with NCI-H522 lung; above 100 µM in the experiment with A549 NSCLC; above 100 µM with COLO 205 colon; above 100 µM with MCF7 breast. Further, the TGI with SK-MEL-2 melanoma, in the experiment with SW-620 colon and in the experiment with DMS 273 small cell lung was above 100 µM in each case.
In the case of `Cn1cnc(SC2=C3C(=O)C=C4S[C@H]5C[C@]42c2c(c(O)c4c6c2=[N+]3CCC=6C=N4)N5)c1CC(N)C(=O)O` (stereo partly specified), the TGI turned out to be 40.9 µM in the experiment with SNB-78 CNS; 28.7 µM in the experiment with XF 498 CNS; 27.1 µM in the experiment with LXFL 529 NSCLC; 16.4 µM with NCI-H522 lung; 56.7 µM in the experiment on A549 NSCLC; 29.1 µM with M14 melanoma. The TGI in the experiment on COLO 205 colon came out at 4.44 µM; in the experiment on SK-MEL-2 melanoma, 28.2 µM; with SW-620 colon it was 18.5 µM; with DMS 273 small cell lung, 26 µM.
`COc1ccc(C2=C(Cl)c3cc(OC)c(OC)cc3C2)cc1OC`: the TGI in the experiment with SNB-78 CNS, in the experiment with XF 498 CNS, in the experiment with LXFL 529 NSCLC, in the experiment on NCI-H522 lung, in the experiment on A549 NSCLC and in the experiment with M14 melanoma was above 100 µM each time. Besides, the TGI in the experiment with COLO 205 colon, in the experiment with SW-620 colon and with DMS 273 small cell lung was above 100 µM each time.
Turning to `CCN(CC)C1Oc2cc3c(cc2C(c2cccc(OC)c2O)C1C)OCO3` (stereo unspecified), the TGI in the experiment on NCI-H522 lung was 7.3 µM; with HS 578T breast, 18.7 µM; in the experiment on A549 NSCLC, 24.6 µM; in the experiment on M14 melanoma, 12.6 µM; in the experiment with COLO 205 colon, 13.6 µM; in the experiment with MDA-N, 5.82 µM. The results for the TGI with MCF7 breast, in the experiment with SK-MEL-2 melanoma and in the experiment with SW-620 colon were above 46 µM, 27.4 µM and 35.4 µM, respectively.
Regarding `COc1cc(C2c3cc(OC)c(OC)c(O)c3C(=O)C3CCC(=O)N32)cc(OC)c1OC` (stereo unspecified), the TGI was 77.6 µM with NCI-H522 lung; above 100 µM with HS 578T breast; above 100 µM with A549 NSCLC; above 100 µM with M14 melanoma; 71.9 µM in the experiment on COLO 205 colon; 34.5 µM in the experiment with MDA-N. Further, the TGI with MCF7 breast, in the experiment with SK-MEL-2 melanoma and in the experiment with SW-620 colon was above 100 µM throughout.
Regarding `COc1ccc(CCCN2c3ccccc3Sc3ccccc32)cc1`, the TGI in the experiment on SNB-78 CNS, in the experiment on XF 498 CNS, with LXFL 529 NSCLC, in the experiment with NCI-H522 lung, in the experiment with A549 NSCLC and in the experiment on M14 melanoma was above 100 µM throughout. The TGI with COLO 205 colon, in the experiment on SK-MEL-2 melanoma, in the experiment on SW-620 colon and in the experiment with DMS 273 small cell lung was above 100 µM each time.
With `CC(=O)c1ccc2c3c1O[C@H]1c4[nH]c5ccccc5c4C[C@@]4(O)[C@@H](C2)N(CC2CC2)CC[C@]314`, the TGI in the experiment with NCI-H522 lung was determined as 35.3 µM; in the experiment with HS 578T breast, 15.2 µM; in the experiment with A549 NSCLC, 21.3 µM; with M14 melanoma it was 31.3 µM; with COLO 205 colon, 30.8 µM; in the experiment with MDA-N it was 34.6 µM. Moreover, the TGI in the experiment with MCF7 breast worked out at 30.4 µM; in the experiment on SK-MEL-2 melanoma, 30.9 µM; in the experiment with SW-620 colon, 20.6 µM.
Turning to `CS(=O)(=O)OCC1CCCCCCCCCCC12SCCCS2` (stereo unspecified), the TGI with NCI-H522 lung, in the experiment on HS 578T breast, in the experiment with A549 NSCLC, in the experiment with M14 melanoma, in the experiment with COLO 205 colon and with MDA-N was above 100 µM each time. Besides, the TGI in the experiment with MCF7 breast, with SK-MEL-2 melanoma and in the experiment with SW-620 colon was above 100 µM throughout.
For the molecule `CCN(CC)c1ccc2cc(C(N)=O)c(=Nc3ccc(F)cc3)oc2c1`, the TGI in the experiment with NCI-H522 lung, in the experiment on HS 578T breast, with A549 NSCLC, with M14 melanoma, in the experiment on COLO 205 colon and with MDA-N was above 100 µM throughout. The TGI with MCF7 breast, in the experiment with SK-MEL-2 melanoma and in the experiment with SW-620 colon was above 100 µM each time.
For the molecule `Cc1ccc2c(=O)cc(Cc3csc4ccccc34)[nH]c2n1`, the TGI is 53.3 µM with NCI-H522 lung; 46.9 µM in the experiment on HS 578T breast; above 100 µM in the experiment on A549 NSCLC; above 100 µM with M14 melanoma; above 100 µM in the experiment on COLO 205 colon; above 100 µM with MDA-N. In addition, the TGI with MCF7 breast, with SK-MEL-2 melanoma and in the experiment on SW-620 colon was above 100 µM each time.
On to `CCC(=O)N1C(=O)C(CC)(CC)C(=O)N1C(=O)CC`, for which the TGI with NCI-H522 lung, in the experiment on HS 578T breast, in the experiment on A549 NSCLC, with M14 melanoma, with COLO 205 colon and with MDA-N was above 100 µM throughout. Also, the TGI in the experiment with MCF7 breast, in the experiment with SK-MEL-2 melanoma and with SW-620 colon was above 100 µM in each case.
For `O=S1(=O)OCCCOS(=O)(=O)C1(Br)Br`, the TGI with NCI-H522 lung, with HS 578T breast, in the experiment with A549 NSCLC, with M14 melanoma, in the experiment with COLO 205 colon and in the experiment with MDA-N was above 100 µM each time. Further, the TGI in the experiment with MCF7 breast, in the experiment on SK-MEL-2 melanoma and with SW-620 colon was above 100 µM in each case.
